Experimental data published in ChEMBL document CHEMBL5316360, “Fatty Acid Conjugated Chalcones as Tubulin Polymerization Inhibitors: Design, Synthesis, QSAR, and Apoptotic and Antiproliferative Activity” (J Nat Prod, 2023).

Key:
[1] = test system: WI-38; assay: Cytotoxicity against human WI-38 cells assessed as reduction in cell viability at 10 to 100 uM measured after 24 hrs by MTT assay; assay type: toxicity, cell-based; settings: wi-38, 24 h, dose 10-100 µM
[2] = test system: Erythrocyte; assay: Hemolytic activity in Albino rat RBC at 150 uM incubated for 15 mins by spectrophotometric analysis; assay type: toxicity, cell-based; settings: 0.25 h
[3] = test system: MCF7; assay: Antiproliferative activity against human MCF7 cells assessed as inhibition of cell growth measured after 24 hrs by MTT assay; assay type: functional, cell-based; settings: MCF7, 24 h
[4] = target: Tubulin; assay: Inhibition of tubulin polymerization in human MCF7 cells incubated for 18 to 24 hrs by ELISA method; assay type: cell-based
[5] = target: Tubulin (Homo sapiens) (UniProt P68371+Q9H4B7+P0DPH7+P68366+Q13509+Q71U36+P04350+Q3ZCM7+P07437+P68363+Q9BQE3+Q6PEY2+Q13885+Q9BVA1+Q9BUF5); assay: Inhibition of tubulin polymerization in human MCF7 cells assessed as fold increase in tubulin inhibition incubated for 18 to 24 hrs by ELISA method; assay type: cell-based; settings: time 18-24 hrs
[6] = test system: A549; assay: Antiproliferative activity against human A549 cells assessed as inhibition of cell growth measured after 24 hrs by MTT assay; assay type: functional, cell-based; settings: A549, 24 h

In the case of `CCCCCCCCCCCCCC(=O)Nc1ccc(C(=O)/C=C/c2ccccc2)cc1`, the Activity [1] is reported as “Non-Toxic”.

`CCCCCCCCCCCCCCCC(=O)Nc1ccc(C(=O)/C=C/c2ccc(OC)cc2)cc1` was tested, and the Activity [2] was “Non-Toxic”.

With `CCCCCCCC(=O)Nc1ccc(C(=O)/C=C/c2ccccc2)cc1` the IC50 [3] was 2.1 µM, the IC50 [4] was 1.5 µM and the Activity [1] was “Non-Toxic”.

For `CCCCCCCCCCCCCCCC(=O)Nc1ccc(C(=O)/C=C/c2ccc(Cl)cc2)cc1`, the Activity [2] was “Non-Toxic”.

For `CCCCCCCCCC(=O)Nc1ccc(C(=O)/C=C/c2ccc(C)cc2)cc1`, the fold change (FC) [5] was 2, the IC50 [3] was 2.6 µM and the IC50 [6] was 2.1 µM. For the same compound, the Activity [1] was “Non-Toxic”.

For `CCCCCCCCCCCCCCCC(=O)Nc1ccc(C(=O)/C=C/c2ccccc2)cc1`, the Activity [1] was “Non-Toxic”.

For `CCCCCCCCCCCCCCCCCC(=O)Nc1ccc(C(=O)/C=C/c2ccccc2)cc1`, the IC50 [4] was 0.8 µM and the Activity [1] was “Non-Toxic”.

In the case of `CCCCCCCCCC(=O)Nc1ccc(C(=O)/C=C/c2ccccc2)cc1`, the IC50 [6] is reported as 0.65 µM and the Activity [1] is reported as “Non-Toxic”.

With `CCCCCCCCCCCCCCCC(=O)Nc1ccc(C(=O)/C=C/c2ccc(C)cc2)cc1` the Activity [2] was “Non-Toxic”.

For `CCCCCCCCCC(=O)Nc1ccc(C(=O)/C=C/c2ccc(OC)cc2)cc1`, the fold change (FC) [5] was 2.

Work on `CCCCCCCCCC(=O)Nc1ccc(C(=O)/C=C/c2ccc(Cl)cc2)cc1` yielded a fold change (FC) [5] of 2, an IC50 [3] of 2.9 µM and an IC50 [6] of 3.2 µM. For the same compound, the Activity [1] was “Non-Toxic”.
